Measurements: ChEMBL document CHEMBL3045588, “Synthesis and Bleaching Activity of 3-Propargylthio-4-(substituted phenyl)-4H-1, 2, 4-triazoles” (1995)
Active and inactive are the calls of the source. The calls are words filed in the database; no cut-off is given here.

Key:
Lactuca sativa [1] = assay: Bleaching activity against Lactuca sativa cv. Sacramento (lettuce) seedlings assessed as bleaching ratings at 3 ppm incubated for 4 days at 25 degC under 12 hr photoperiod; type: functional
Lactuca sativa [2] = assay: Bleaching activity against Lactuca sativa cv. Sacramento (lettuce) seedlings assessed as bleaching ratings at 1 ppm incubated for 4 days at 25 degC under 12 hr photoperiod; type: functional
Lactuca sativa [3] = assay: Bleaching activity against Lactuca sativa cv. Sacramento (lettuce) seedlings assessed as bleaching ratings at 10 ppm incubated for 4 days at 25 degC under 12 hr photoperiod; type: functional
Lactuca sativa [4] = assay: Bleaching activity against Lactuca sativa cv. Sacramento (lettuce) seedlings assessed as bleaching ratings at 5 ppm incubated for 4 days at 25 degC under 12 hr photoperiod; type: functional
Lactuca sativa [5] = assay: Bleaching activity against Lactuca sativa cv. Sacramento (lettuce) seedlings assessed as bleaching ratings at 25 ppm incubated for 4 days at 25 degC under 12 hr photoperiod; type: functional
Lactuca sativa [6] = assay: Bleaching activity against Lactuca sativa cv. Sacramento (lettuce) seedlings assessed as bleaching ratings at 50 ppm incubated for 4 days at 25 degC under 12 hr photoperiod; type: functional
Radish [7] = assay: Reduction in chlorophyll content in Raphanus sativus cv. Osaka (radish) seedlings at 10 to 100 uM incubated for 4 days at 25 degC under 12 hr photoperiod by spectrophotometry; type: functional, organism-based
Radish [8] = assay: Induction of phytoene accumulation in Raphanus sativus cv. Osaka (radish) seedlings at 10 to 100 uM incubated for 4 days at 25 degC under dark conditions; type: functional, organism-based
Radish [9] = assay: Reduction in beta-carotene content in Raphanus sativus cv. Osaka (radish) seedlings at 10 to 100 uM incubated for 4 days at 25 degC under dark conditions; type: functional, organism-based
Radish [10] = assay: Reduction in carotenoid content in Raphanus sativus cv. Osaka (radish) seedlings at 10 uM incubated for 4 days at 25 degC under dark conditions; type: functional, organism-based
Radish [11] = assay: Reduction in chlorophyll content in Raphanus sativus cv. Osaka (radish) seedlings at 10 uM incubated for 4 days at 25 degC under 12 hr photoperiod by spectrophotometry; type: functional; design: scale not given: the % may be the effect or the level left
Radish [12] = assay: Reduction in carotenoid content in Raphanus sativus cv. Osaka (radish) seedlings at 10 uM incubated for 4 days at 25 degC under 12 hr photoperiod; type: functional; design: scale not given: the % may be the effect or the level left
Radish [13] = assay: Reduction in chlorophyll content in Raphanus sativus cv. Osaka (radish) seedlings at 10 uM incubated for 4 days at 25 degC under dark conditions; type: functional, organism-based
Radish [14] = assay: Reduction in carotenoid content in Raphanus sativus cv. Osaka (radish) seedlings at 10 to 100 uM incubated for 4 days at 25 degC under 12 hr photoperiod; type: functional, organism-based
Radish [15] = assay: Reduction in phytoene accumulation in Raphanus sativus cv. Osaka (radish) seedlings at 100 uM incubated for 4 days at 25 degC under dark conditions relative to untreated control; type: functional, organism-based
Radish [16] = assay: Induction of phytoene accumulation in Raphanus sativus cv. Osaka (radish) seedlings at 50 uM incubated for 4 days at 25 degC under dark conditions relative to untreated control; type: functional
Radish [17] = assay: Reduction in chlorophyll content in Raphanus sativus cv. Osaka (radish) seedlings at 100 uM incubated for 4 days at 25 degC under 12 hr photoperiod by spectrophotometry; type: functional, organism-based
Radish [18] = assay: Reduction in carotenoid content in Raphanus sativus cv. Osaka (radish) seedlings at 100 uM incubated for 4 days at 25 degC under 12 hr photoperiod; type: functional, organism-based

Row | SMILES | Activity (Lactuca sativa [1]) | Activity (Lactuca sativa [2]) | Activity (Lactuca sativa [3]) | Activity (Lactuca sativa [4]) | Activity (Lactuca sativa [5]) | Activity (Lactuca sativa [6]) | other results
1 | C#CCSc1nncn1-c1ccc(C(F)(F)F)cc1 | 1 | 0 | 3 | 2 | 3 |  | 
2 | c1ccc(CSc2nncn2-c2ccccc2)cc1 |  |  | 1 |  | 1 | 2 | 
3 | C#CCSc1nncn1-c1ccc(C)cc1 | 1 | 0 | 3 | 3 | 3 |  | 
4 | C#CCSc1nncn1-c1ccc(Cl)c(Cl)c1 | 2 | 0 | 4 | 3 | 4 |  | 
5 | CCCS(=O)(=O)c1nncn1-c1ccccc1 |  |  | 0 |  | 0 | 0 | 
6 | Sc1nncn1-c1ccccc1 |  |  | 0 |  | 0 | 0 | 
7 | C#CCSc1nncn1-c1cccc(C(F)(F)F)c1 | 1 | 0 | 3 | 2 | 3 |  | 
8 | C#CCSc1nncn1-c1cccc(Cl)c1 | 2 | 0 | 3 | 3 | 4 |  | Activity (Radish [7]): Active; Activity (Radish [8]): Active; Activity (Radish [9]): Active; Activity (Radish [10]): Active; Activity (Radish [11]): 60%; Activity (Radish [12]): 60%; Activity (Radish [13]): Active; Activity (Radish [14]): Active
9 | C#CCSc1nncn1-c1ccc(Cl)cc1 | 1 | 0 | 3 | 2 | 4 |  | Activity (Radish [7]): Active; Activity (Radish [8]): Active; Activity (Radish [15]): Active; fold change (FC) (Radish [16]): 150; Activity (Radish [9]): Active; Activity (Radish [10]): Active; Activity (Radish [11]): 60%; Activity (Radish [12]): 60%; Activity (Radish [13]): Active; Activity (Radish [14]): Active
10 | C#CCSc1nncn1-c1ccccc1Cl | 0 | 0 | 0 | 0 | 0 |  | Activity (Radish [17]): inactive; Activity (Radish [18]): inactive
11 | CCCCSc1nncn1-c1ccccc1 |  |  | 0 |  | 1 | 2 | 
12 | CCCSc1nncn1-c1ccccc1 |  |  | 1 |  | 2 | 4 | 
13 | C#CCSc1nncn1-c1ccccc1 | 0 | 0 | 1 | 0 | 3 | 4 | 
14 | CSc1nncn1-c1ccccc1 |  |  | 0 |  | 0 | 0 | 
15 | C=CCSc1nncn1-c1ccccc1 |  |  | 0 |  | 0 | 0 | 
16 | COCSc1nncn1-c1ccccc1 |  |  | 0 |  | 0 | 0 | 
17 | C#CCSc1nncn1-c1ccc(OCC)cc1 | 1 | 0 | 3 | 2 | 3 |  | 
18 | CCSc1nncn1-c1ccccc1 |  |  | 1 |  | 2 | 3 | 
